Results taken from PMC9818021, “Targets, Mechanisms and Cytotoxicity of Half-Sandwich Ir(III) Complexes Are Modulated by Structural Modifications on the Benzazole Ancillary Ligand” (Cancers, 2022).
Entries after “also recorded” stand apart in the source; their conditions may differ.

Columns and labels:
Qualitative solubility = assay type: physicochemical; details: 1-2 mg, solvent up to 1 mL
Method: Solubility. The solubility of the complexes was qualitatively assessed. Different solvents were added drop-by-drop while shaking to a small amount of complex (around 1–2 mg) in a vial until the solvent added exceeded 1 mL. Afterwards, it was checked if the solid was or not completely dissolved and/or if the solution got coloured.

Calf thymus DNA = experiment: Kinetics of covalent binding to DNA (UV-vis, NMR); details: for Covalent binding to DNA: UV-Vis and NMR; for kc x 103 (rate constant of covalent binding to DNA): values are kc x 103, CP/CD = 20
Method: Materials. The iridium chloride salt (IrCl3·nH2O) was purchased from Johnson Mattey. The ligands 2-phenylbenzimidazole, 2-(2′-pyridylbenzimidazole), 2-(2′-aminophenylbenzimidazole), 2-(2′-aminophenylbenzothiazole), 2-(2′-hydroxyphenylbenzimidazole) and 2-(2′-hydroxyphenylbenzothiazole) were purchased from Sigma-Aldrich. The ligands 2-phenyl-N-methyl-benzimidazole and 2-(2′-pyridyl)l-N-methyl-benzimidazole were prepared according to slightly modified reported protocols. Deuterated solvents were obtained from SDS and Euriso-top. Unless otherwise specified, all the biological reagents were purchased from Merck Life Science S.L.U., Madrid, Spain. Calf thymus DNA provided as a highly polymerized lyophilized sodium salt was dissolved into doubly-deionized water and sonicated with an MSE-Sonyprep sonicator to reduce the polymer length at approximately 1000 base-pairs. The molar DNA concentration in base pairs, ε (260 nm) = 13,200 M^−1 cm^−1 [49], will be expressed as CP. BSA was supplied as crystallized and lyophilized powder (≥98%, agarose gel electrophoresis and ≤0.005% fatty acids); the BSA concentration of the stock solutions was spectrophotometrically determined as ε (278 nm) = 45,000 M^−1 cm^−1. All aqueous solutions were prepared with MilliQ-grade water using a Direct-Q8UV system from Millipore (Millipore Ibérica S.A., Madrid, Spain). All solvents were of analytical grade. The chemical studies were carried out in aqueous solutions at 25 °C, I = 2.5 mM sodium cacodylate (NaCaC) and pH between 6.0 and 7.1 unless other conditions are stated. All buffers with the biological components were of biological grade and used as received.
The UV-vis measurements were performed with a Hewlett-Packard 8453A (Agilent Technologies, Palo Alto, CA, USA) photodiode array spectrophotometer with a Peltier temperature control system. Titrations were carried out at 25 °C by adding increasing amounts of DNA solution to the iridium complex solution. The pKa values were measured by analysing the absorbance change of iridium complex solutions recorded at different pH values. The melting experiments were carried out using a DNA solution varying the CIr-complex/CDNA (CD/CP) ratio from 0 to 1, keeping CP constant and recording the absorbance spectra while heating from 25 to 90 °C at 0.3 °C/min.
The slow kinetic measurements were performed with the previous spectrophotometer while the fast kinetic measurements were performed in a stopped flow Bio-Logic SFM-300 spectrophotometer with an absorbance detection system and dead time below 3 ms. The kinetic curves, obtained averaging out at least five shots, were analysed with the Jandel (AISN software, Mapleton, OR) fitting package.
2 - Interaction wit h DNA
Aquo- complexes bind DNA(N7) more easily than their chlorido analogous[1],[2].
complexes were incubated overnight until the aquation process i s co m ple t ed. Water-insoluble
compounds were firstly dissolved in DMSO and then diluted in water.
From the fitting of absorbance-time graphs (Figure S8 ) to a biexponential analysis, two rate
constants were obtained. The fast reaction could be related to covalent binding, being k c t he
to DNA/Ir-complex rearrangements, so it was disregarded.
0. 174 3 [ N, NH] 4 [ N, NMe ]
Figure S13. Biexponential kinetic curves of DNA with A) 3[N,NH] CD = 1.0 3×1 0-5 M, B) 4[N,NMe] CD =
M, F) 8[CO,S] C D = 9.4 0×1 0- 6 M. CP/CD = 20.
Table S10. Rate constants for the covalent binding between the complexes and DNA.
The formation of covalent DNA/Ir-complex product (PD), can be represented according to the
where P represents the polynucleotide DNA and D the Iridium -metal complexes. Henceforth, CD
and CP stand for the analytical D and P concentrations, respectively.
Nevertheless, we observed that for each complex, the kc values remained essentially constant
with the increment of CP (Figure S9 ), proving that the reaction is monomolecular. Therefore, PD […]

BSA = target: T1, BSA (Bos taurus, UniProt P02769); experiment: Native PAGE of BSA with iridium complexes; assay type: binding, bovine; details: BSA 3 µM, CD/CP = 10, overnight
T1 construct: purchased Merck Life Science S.L.U., Madrid, Spain
Method: Native protein electrophoresis. The interaction between BSA and iridium complexes was studied using native polyacrylamide gel electrophoresis (PAGE). The BSA concentration was 3 µM and the CD/CP ratio was 10. The samples of BSA/Ir-complexes were incubated overnight. The samples were mixed with a sample buffer (glycerol and bromophenol) and loaded into a 10% polyacrylamide gel for PAGE analysis (BioRad electrophoresis accessories). The gel was run at 80 V for 3 h, and then it was stained and destained before the gel was imaged using BioRad Gel Doc XR+ molecular imager. The staining solution contains 45% MeOH, 10% glacial acetic acid, 45% H2O and 0.1% brilliant blue, whereas the destaining solution consists of 20% MeOH, 10% glacial acetic acid and 70% H2O.

T1 sequence (P02769 25-607): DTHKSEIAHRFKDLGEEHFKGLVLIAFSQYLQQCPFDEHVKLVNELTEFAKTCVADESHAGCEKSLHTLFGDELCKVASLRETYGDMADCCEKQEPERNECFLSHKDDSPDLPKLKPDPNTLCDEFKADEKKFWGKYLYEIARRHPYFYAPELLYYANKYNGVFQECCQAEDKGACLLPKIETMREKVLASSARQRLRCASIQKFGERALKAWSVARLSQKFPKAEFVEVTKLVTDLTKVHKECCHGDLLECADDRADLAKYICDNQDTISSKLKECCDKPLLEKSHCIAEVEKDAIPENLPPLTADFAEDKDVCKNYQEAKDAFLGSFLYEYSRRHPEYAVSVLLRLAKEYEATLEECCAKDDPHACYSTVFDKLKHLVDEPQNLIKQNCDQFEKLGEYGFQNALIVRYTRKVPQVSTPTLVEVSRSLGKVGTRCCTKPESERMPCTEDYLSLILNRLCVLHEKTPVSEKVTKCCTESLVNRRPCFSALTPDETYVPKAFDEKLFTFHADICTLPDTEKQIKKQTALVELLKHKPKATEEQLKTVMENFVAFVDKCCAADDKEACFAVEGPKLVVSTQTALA

## Cc1c(C)c(C)[c-](C)c1C.[Cl][Ir]1[c]2ccccc2-c2[nH]c3ccccc3[n+]21 [1[C,NH], [(η^5-Cp*)IrCl(κ^2-N,C-pbim)]]
Qualitative solubility; listed as 1[C,NH-Cl]
  Solubility in water: insoluble in water; also recorded: soluble in DMSO, but not in water
Calf thymus DNA
  Covalent binding to DNA: ruled out
BSA
  Interaction with BSA: do not interact with the protein

## Cc1c(C)c(C)[c-](C)c1C.Cn1c2[n+](c3ccccc31)[Ir]([Cl])[c]1ccccc1-2 [2[C,NMe], [(η^5-Cp*)IrCl(κ^2-N,C-NMepbim)]]
Qualitative solubility; listed as 2[C,NMe-Cl]
  Solubility in water: insoluble in water; also recorded: soluble in DMSO, but not in water
Calf thymus DNA
  Covalent binding to DNA: ruled out
BSA
  Interaction with BSA: do not interact with the protein

## Cc1c(C)c(C)[c-](C)c1C.[Cl-].[Cl][Ir]1[n+]2ccccc2-c2[nH]c3ccccc3[n+]21 [3[N,NH], [(η^5-Cp*)IrCl(κ^2-N,N-pybim)]Cl]
Qualitative solubility; listed as 3[N,NH-Cl]
  Solubility in water: soluble in water
Qualitative solubility; listed as 3[N,NH-Cl]+
  Solubility in water: water-soluble
Calf thymus DNA
  Covalent binding to DNA: able to covalently bind DNA
  kc x 103 (rate constant of covalent binding to DNA): 20 ± 2 s-1
BSA
  Interaction with BSA: interactions

## Cc1c(C)c(C)[c-](C)c1C.Cn1c2[n+](c3ccccc31)[Ir]([Cl])[n+]1ccccc1-2.[Cl-] [4[N,NMe], [(η^5-Cp*)IrCl(κ^2-N,N-pyMebim)]Cl]
Qualitative solubility; listed as 4[N,NMe-Cl]
  Solubility in water: soluble in water
Qualitative solubility; listed as 4[N,NMe-Cl]+
  Solubility in water: water-soluble
Calf thymus DNA
  Covalent binding to DNA: able to covalently bind DNA
  kc x 103 (rate constant of covalent binding to DNA): 16 ± 1 s-1
BSA
  Interaction with BSA: interactions

## Cc1c(C)c(C)[c-](C)c1C.[Cl-].[Cl][Ir]1[NH2+]c2ccccc2-c2[nH]c3ccccc3[n+]21 [5[CNH2,NH], [(η^5-Cp*)IrCl(κ^2-N,N-apbim)]Cl]
Qualitative solubility; listed as 5[CNH2,NH-Cl]
  Solubility in water: soluble in water
Qualitative solubility; listed as 5[CNH2,NH-Cl]+
  Solubility in water: water-soluble
Calf thymus DNA
  Covalent binding to DNA: able to covalently bind DNA
  kc x 103 (rate constant of covalent binding to DNA): 3.9 ± 0.1 s-1
BSA
  Interaction with BSA: do not interact with the protein

## Cc1c(C)c(C)[c-](C)c1C.[Cl-].[Cl][Ir]1[NH2+]c2ccccc2-c2sc3ccccc3[n+]21 [6[CNH2,S], [(η^5-Cp*)IrCl(κ^2-N,N-apbtz)]Cl]
Qualitative solubility
  Solubility in water: water-soluble
Calf thymus DNA
  Covalent binding to DNA: able to covalently bind DNA
  kc x 103 (rate constant of covalent binding to DNA): 6.4 ± 0.2 s-1
BSA
  Interaction with BSA: do not interact with the protein

## Cc1c(C)c(C)[c-](C)c1C.[Cl][Ir]1[O]c2ccccc2-c2[nH]c3ccccc3[n+]21 [7[CO,NH], [(η^5-Cp*)IrCl(κ^2-O,N-hpbim)]]
Qualitative solubility; listed as 7[CO,NH-Cl]
  Solubility in water: insoluble in water; also recorded: soluble in DMSO, but not in water
Calf thymus DNA
  Covalent binding to DNA: able to covalently bind DNA
  kc x 103 (rate constant of covalent binding to DNA): 3.7 ± 0.1 s-1
BSA
  Interaction with BSA: interactions

## Cc1c(C)c(C)[c-](C)c1C.[Cl][Ir]1[O]c2ccccc2-c2sc3ccccc3[n+]21 [8[CO,S], [(η^5-Cp*)IrCl(κ^2-O,N-hpbtz)]]
Qualitative solubility; listed as 8[CO,S-Cl]
  Solubility in water: insoluble in water; also recorded: soluble in DMSO, but not in water
Calf thymus DNA
  Covalent binding to DNA: able to covalently bind DNA
  kc x 103 (rate constant of covalent binding to DNA): 6.0 ± 0.2 s-1
BSA
  Interaction with BSA: interacts with BSA
